From the NIST ThermoML archive (doi:10.1016/j.jct.2016.03.035)
Where “and” joins values, the source holds several entries; their conditions need not be identical. Equal values may be shown once. Numbers after ± are expanded uncertainties.

Assay: xn = mol fraction of the nth substance listed
Details: Gas, Buoyancy - hydrostatic balance with magnetic suspension - two sinkers

C [methane] + CCC
Details | mass density
248.15 K, 96.6 kPa, x1 = 0.2658 | 1.7468 ± 0.0038 kg/m3
248.15 K, 120.09 kPa, x1 = 0.5069 | 1.764 ± 0.0041 kg/m3 and 1.7641 ± 0.0035 kg/m3 and 1.7642 ± 0.0039 kg/m3
248.15 K, 141.7 kPa, x1 = 0.2658 | 2.5863 ± 0.0041 kg/m3 and 2.5861 ± 0.0039 kg/m3 and 2.5862 ± 0.0038 kg/m3
248.15 K, 183.4 kPa, x1 = 0.5069 | 2.7166 ± 0.0045 kg/m3 and 2.7162 ± 0.004 kg/m3 and 2.7167 ± 0.0041 kg/m3
248.15 K, 184.56 kPa, x1 = 0.2658 | 3.3989 ± 0.0042 kg/m3 and 3.3987 ± 0.0043 kg/m3
248.15 K, 220.8 kPa, x1 = 0.2658 | 4.0983 ± 0.0043 kg/m3 and 4.0981 ± 0.0044 kg/m3 and 4.0981 ± 0.0045 kg/m3
248.15 K, 244.4 kPa, x1 = 0.5069 | 3.6494 ± 0.0042 kg/m3 and 3.6497 ± 0.0041 kg/m3 and 3.6499 ± 0.0043 kg/m3
248.15 K, 251.13 kPa, x1 = 0.2658 | 4.6927 ± 0.0046 kg/m3 and 4.6924 ± 0.0045 kg/m3 and 4.6926 ± 0.0045 kg/m3
248.15 K, 271.98 kPa, x1 = 0.2658 | 5.1061 ± 0.0046 kg/m3
248.15 K, 271.99 kPa, x1 = 0.2658 | 5.1059 ± 0.0046 kg/m3
248.15 K, 275.99 kPa, x1 = 0.2658 | 5.186 ± 0.0048 kg/m3 and 5.1858 ± 0.0048 kg/m3 and 5.1858 ± 0.0047 kg/m3
248.15 K, 303.31 kPa, x1 = 0.5069 | 4.5661 ± 0.0048 kg/m3 and 4.566 ± 0.0049 kg/m3 and 4.5662 ± 0.0045 kg/m3
248.15 K, 360.5 kPa, x1 = 0.5069 | 5.4703 ± 0.005 kg/m3 and 5.4702 ± 0.0049 kg/m3 and 5.4702 ± 0.0048 kg/m3
248.15 K, 424.87 kPa, x1 = 0.5069 | 6.5058 ± 0.0054 kg/m3 and 6.5052 ± 0.0054 kg/m3 and 6.5054 ± 0.0051 kg/m3
248.16 K, 96.6 kPa, x1 = 0.2658 | 1.7471 ± 0.0039 kg/m3 and 1.747 ± 0.0038 kg/m3
248.16 K, 390.03 kPa, x1 = 0.7498 | 4.4827 ± 0.0048 kg/m3
248.16 K, 390.04 kPa, x1 = 0.7498 | 4.4825 ± 0.005 kg/m3 and 4.4826 ± 0.0049 kg/m3
248.16 K, 500.33 kPa, x1 = 0.7498 | 5.7987 ± 0.0056 kg/m3 and 5.7985 ± 0.0054 kg/m3 and 5.7986 ± 0.0055 kg/m3
248.16 K, 580.7 kPa, x1 = 0.7498 | 6.7716 ± 0.0058 kg/m3 and 6.7717 ± 0.0057 kg/m3
248.16 K, 685.07 kPa, x1 = 0.7498 | 8.055 ± 0.0061 kg/m3 and 8.0552 ± 0.0061 kg/m3
248.16 K, 786.23 kPa, x1 = 0.7498 | 9.3205 ± 0.0066 kg/m3
248.16 K, 786.24 kPa, x1 = 0.7498 | 9.3204 ± 0.0067 kg/m3 and 9.3205 ± 0.0066 kg/m3
248.16 K, 835.59 kPa, x1 = 0.7498 | 9.9462 ± 0.0069 kg/m3
248.16 K, 835.6 kPa, x1 = 0.7498 | 9.946 ± 0.0069 kg/m3 and 9.9461 ± 0.0069 kg/m3
248.16 K, 859.93 kPa, x1 = 0.7498 | 10.2556 ± 0.0071 kg/m3
248.16 K, 859.95 kPa, x1 = 0.7498 | 10.2561 ± 0.007 kg/m3 and 10.2559 ± 0.007 kg/m3
248.16 K, 884.03 kPa, x1 = 0.7498 | 10.5636 ± 0.0072 kg/m3 and 10.5634 ± 0.007 kg/m3 and 10.5637 ± 0.0071 kg/m3
248.17 K, 276.07 kPa, x1 = 0.7498 | 3.1457 ± 0.0044 kg/m3
248.17 K, 276.08 kPa, x1 = 0.7498 | 3.1457 ± 0.0045 kg/m3 and 3.1455 ± 0.0043 kg/m3
273.14 K, 124.74 kPa, x1 = 0.5069 | 1.6598 ± 0.0043 kg/m3 and 1.6598 ± 0.0039 kg/m3
273.14 K, 258.4 kPa, x1 = 0.5069 | 3.4826 ± 0.0039 kg/m3
273.15 K, 124.75 kPa, x1 = 0.5069 | 1.6598 ± 0.004 kg/m3
273.15 K, 167.48 kPa, x1 = 0.2658 | 2.7681 ± 0.004 kg/m3 and 2.7679 ± 0.0038 kg/m3
273.15 K, 167.49 kPa, x1 = 0.2658 | 2.7677 ± 0.0039 kg/m3
273.15 K, 218.01 kPa, x1 = 0.5069 | 2.9256 ± 0.0047 kg/m3
273.15 K, 218.04 kPa, x1 = 0.5069 | 2.9262 ± 0.0045 kg/m3
273.15 K, 218.06 kPa, x1 = 0.5069 | 2.9265 ± 0.0044 kg/m3
273.15 K, 242.18 kPa, x1 = 0.2658 | 4.0482 ± 0.0043 kg/m3 and 4.0482 ± 0.0045 kg/m3
273.15 K, 258.4 kPa, x1 = 0.5069 | 3.4831 ± 0.0045 kg/m3
273.15 K, 258.41 kPa, x1 = 0.5069 | 3.4831 ± 0.0044 kg/m3
273.15 K, 262.29 kPa, x1 = 0.5069 | 3.5352 ± 0.1 kg/m3
273.15 K, 269.26 kPa, x1 = 0.5069 | 3.6315 ± 0.1 kg/m3
273.15 K, 277.28 kPa, x1 = 0.5069 | 3.7427 ± 0.099 kg/m3
273.15 K, 309 kPa, x1 = 0.5069 | 4.1836 ± 0.1 kg/m3
273.15 K, 316.31 kPa, x1 = 0.5069 | 4.2857 ± 0.097 kg/m3
273.15 K, 321.34 kPa, x1 = 0.5069 | 4.3577 ± 0.0047 kg/m3 and 4.3576 ± 0.0047 kg/m3
273.15 K, 321.35 kPa, x1 = 0.5069 | 4.3574 ± 0.0048 kg/m3
273.15 K, 323.08 kPa, x1 = 0.5069 | 4.3804 ± 0.096 kg/m3
273.15 K, 340.33 kPa, x1 = 0.5069 | 4.6223 ± 0.0047 kg/m3
273.15 K, 340.34 kPa, x1 = 0.5069 | 4.6226 ± 0.0047 kg/m3
273.15 K, 340.36 kPa, x1 = 0.5069 | 4.6229 ± 0.0046 kg/m3
273.15 K, 344.34 kPa, x1 = 0.2658 | 5.85 ± 0.0049 kg/m3 and 5.8499 ± 0.0048 kg/m3 and 5.85 ± 0.0048 kg/m3
273.15 K, 401.7 kPa, x1 = 0.2658 | 6.8907 ± 0.0051 kg/m3 and 6.8903 ± 0.0054 kg/m3
273.15 K, 401.71 kPa, x1 = 0.2658 | 6.8904 ± 0.0051 kg/m3
273.15 K, 402.73 kPa, x1 = 0.5069 | 5.504 ± 0.089 kg/m3
273.15 K, 406.4 kPa, x1 = 0.2658 | 6.9763 ± 0.0071 kg/m3
273.15 K, 406.45 kPa, x1 = 0.2658 | 6.9765 ± 0.0052 kg/m3 and 6.9764 ± 0.0052 kg/m3
273.15 K, 409.05 kPa, x1 = 0.5069 | 5.5939 ± 0.09 kg/m3
273.15 K, 415.33 kPa, x1 = 0.5069 | 5.6832 ± 0.089 kg/m3
273.15 K, 430.79 kPa, x1 = 0.2658 | 7.4249 ± 0.0055 kg/m3
273.15 K, 430.8 kPa, x1 = 0.2658 | 7.4251 ± 0.0054 kg/m3
273.15 K, 441.05 kPa, x1 = 0.5069 | 6.0518 ± 0.007 kg/m3
